From ChEMBL document CHEMBL1130945, “Rapid optimization of an ICE inhibitor synthesis using multiple reaction conditions in a parallel array” (Bioorg Med Chem Lett, 1998)

Tests used:
Caspase-1 [1] = target: T1, Caspase-1 (Homo sapiens, UniProt P29466, D381E); assay: Compound was tested for binding affinity against N-His (D381E) Interleukin -1 beta converting enzyme
Caspase-1 [2] = target: T1, Caspase-1; assay: Compound was tested for inhibitory activity against N-His (D381E) Interleukin -1 beta converting enzyme (resynthesized compound)
Caspase-1 [3] = target: T1, Caspase-1; assay: Compound was tested for inhibitory activity against N-His (D381E) Interleukin -1 beta converting enzyme (combinatorially prepared compound)

T1 sequence (P29466 120-297 limits assumed): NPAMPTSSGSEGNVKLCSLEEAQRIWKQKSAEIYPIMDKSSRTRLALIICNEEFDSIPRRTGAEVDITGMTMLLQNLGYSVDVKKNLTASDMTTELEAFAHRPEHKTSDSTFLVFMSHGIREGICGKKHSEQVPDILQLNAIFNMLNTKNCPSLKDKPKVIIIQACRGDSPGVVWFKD
T1 sequence (P29466 317-404 D381E limits assumed): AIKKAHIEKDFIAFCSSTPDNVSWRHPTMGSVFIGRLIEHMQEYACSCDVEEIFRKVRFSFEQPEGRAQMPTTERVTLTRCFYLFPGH

Ki (Caspase-1 [1]) | IC50 (Caspase-1 [2]) | IC50 (Caspase-1 [3]) | SMILES
4500 nM | 35000 nM | 12000 nM | O=C(O)C[C@H](NC(=O)OCc1ccccc1)C(=O)COC(=O)CCc1ccccc1
 |  | 936 nM | O=C(O)C[C@H](NC(=O)OCc1ccccc1)C(=O)COC(=O)Cc1c(Cl)ccc(Cl)c1Cl
113 nM | 7 nM | 5 nM | CC(=O)NC(C(=O)N[C@@H](CC(=O)O)C(=O)COC(=O)Cc1c(Cl)ccc(Cl)c1Cl)C(C)C (stereo partly specified)
82 nM | 8 nM | 5 nM | CC(=O)NC(C(=O)N[C@@H](CC(=O)O)C(=O)COC(=O)Cc1c(Cl)cccc1Cl)C(C)C (stereo partly specified)
 |  | 742 nM | O=C(O)C[C@H](NC(=O)OCc1ccccc1)C(=O)COC(=O)Cc1c(Cl)cccc1Cl
